Assay results as given in US20240109865A1, “INDAZOLE COMPOUNDS AS KINASE INHIBITORS” (TYRA BIOSCIENCES, INC., priority 2020, published 2024).

Assays:
[1] = tested on: KG-1 cells (FGFR1-fusion); test: KG-1 cancer cell line cell viability assay (CellTiter-Glo 2.0); assay type: cell-based; settings: Homo sapiens, 72 hours, Cell Titer Glo 2.0
Procedure, shortened: (§1)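 RT112/84, UM-UC-14 and KG-1 cells (10,000/well, RPMI1640 with 10% FBS) were treated with a 9-dose, 10-fold series starting at 30 μM, in triplicate, for 72 h at 37 °C. ATP was read by CellTiter-Glo 2.0 luminescence relative to DMSO controls, and IC50 was fitted with a 4-parameter sigmoidal model.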

[2] = biological target: FGFR2 (Homo sapiens (Human), UniProt P21802); test: Kinase assay, binding constants (Kd), kinase-tagged T7 phage, qPCR
FGFR2, sequence (P21802 22-821): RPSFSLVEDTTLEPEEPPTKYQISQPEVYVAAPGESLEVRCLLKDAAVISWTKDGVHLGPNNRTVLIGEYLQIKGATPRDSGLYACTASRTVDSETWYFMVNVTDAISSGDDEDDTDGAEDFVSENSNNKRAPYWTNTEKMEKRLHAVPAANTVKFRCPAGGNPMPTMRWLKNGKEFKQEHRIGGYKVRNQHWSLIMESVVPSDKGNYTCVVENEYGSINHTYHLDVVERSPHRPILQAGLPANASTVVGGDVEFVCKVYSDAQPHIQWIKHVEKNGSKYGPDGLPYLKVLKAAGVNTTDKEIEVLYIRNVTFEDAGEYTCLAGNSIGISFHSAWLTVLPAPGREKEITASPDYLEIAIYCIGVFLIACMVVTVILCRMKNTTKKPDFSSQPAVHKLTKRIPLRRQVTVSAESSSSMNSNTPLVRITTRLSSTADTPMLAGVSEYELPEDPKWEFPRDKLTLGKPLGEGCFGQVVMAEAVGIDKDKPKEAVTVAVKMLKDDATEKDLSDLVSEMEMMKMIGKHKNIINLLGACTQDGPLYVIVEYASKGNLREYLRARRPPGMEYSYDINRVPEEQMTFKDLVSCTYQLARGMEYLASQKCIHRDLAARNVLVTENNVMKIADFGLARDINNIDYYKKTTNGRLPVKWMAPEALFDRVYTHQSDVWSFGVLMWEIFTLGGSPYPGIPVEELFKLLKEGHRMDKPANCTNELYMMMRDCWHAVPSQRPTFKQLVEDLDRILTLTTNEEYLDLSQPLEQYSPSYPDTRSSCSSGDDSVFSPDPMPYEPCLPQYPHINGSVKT
Procedure, shortened: (§2)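 Competition binding: T7 phage-tagged kinase + biotin-ligand beads + compound (11 pts, 3-fold, 0.9% DMSO). Elution 30 min RT with free ligand; qPCR quantitation. Kd via Hill fit, slope −1.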

[3] = biological target: FGFR3 (Homo sapiens (Human), UniProt P22607); test: as above
FGFR3, sequence (P22607 23-806): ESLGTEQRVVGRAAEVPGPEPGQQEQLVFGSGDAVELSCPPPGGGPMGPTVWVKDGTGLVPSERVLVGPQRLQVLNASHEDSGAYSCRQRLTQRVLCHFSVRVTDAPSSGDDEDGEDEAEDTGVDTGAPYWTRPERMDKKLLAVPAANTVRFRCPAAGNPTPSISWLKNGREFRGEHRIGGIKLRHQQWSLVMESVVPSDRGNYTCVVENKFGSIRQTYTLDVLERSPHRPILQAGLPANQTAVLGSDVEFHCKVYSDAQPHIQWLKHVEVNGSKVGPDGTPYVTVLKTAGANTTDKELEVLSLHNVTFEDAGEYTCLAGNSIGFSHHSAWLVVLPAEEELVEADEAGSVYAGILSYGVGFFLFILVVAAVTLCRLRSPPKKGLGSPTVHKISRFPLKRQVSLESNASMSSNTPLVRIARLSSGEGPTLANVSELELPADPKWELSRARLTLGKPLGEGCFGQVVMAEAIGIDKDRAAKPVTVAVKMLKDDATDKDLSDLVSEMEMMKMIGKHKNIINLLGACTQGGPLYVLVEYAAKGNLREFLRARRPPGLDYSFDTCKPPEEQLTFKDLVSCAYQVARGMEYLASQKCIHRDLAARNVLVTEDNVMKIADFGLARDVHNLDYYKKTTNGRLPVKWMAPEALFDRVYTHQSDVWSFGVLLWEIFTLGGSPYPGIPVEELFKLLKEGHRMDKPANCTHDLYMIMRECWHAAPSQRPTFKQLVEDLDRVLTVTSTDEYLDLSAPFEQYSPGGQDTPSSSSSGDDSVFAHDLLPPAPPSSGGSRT
Procedure, shortened: as §2

[4] = biological target: FGFR4 (Homo sapiens (Human), UniProt P22455); test: as above
FGFR4, sequence (P22455 22-802): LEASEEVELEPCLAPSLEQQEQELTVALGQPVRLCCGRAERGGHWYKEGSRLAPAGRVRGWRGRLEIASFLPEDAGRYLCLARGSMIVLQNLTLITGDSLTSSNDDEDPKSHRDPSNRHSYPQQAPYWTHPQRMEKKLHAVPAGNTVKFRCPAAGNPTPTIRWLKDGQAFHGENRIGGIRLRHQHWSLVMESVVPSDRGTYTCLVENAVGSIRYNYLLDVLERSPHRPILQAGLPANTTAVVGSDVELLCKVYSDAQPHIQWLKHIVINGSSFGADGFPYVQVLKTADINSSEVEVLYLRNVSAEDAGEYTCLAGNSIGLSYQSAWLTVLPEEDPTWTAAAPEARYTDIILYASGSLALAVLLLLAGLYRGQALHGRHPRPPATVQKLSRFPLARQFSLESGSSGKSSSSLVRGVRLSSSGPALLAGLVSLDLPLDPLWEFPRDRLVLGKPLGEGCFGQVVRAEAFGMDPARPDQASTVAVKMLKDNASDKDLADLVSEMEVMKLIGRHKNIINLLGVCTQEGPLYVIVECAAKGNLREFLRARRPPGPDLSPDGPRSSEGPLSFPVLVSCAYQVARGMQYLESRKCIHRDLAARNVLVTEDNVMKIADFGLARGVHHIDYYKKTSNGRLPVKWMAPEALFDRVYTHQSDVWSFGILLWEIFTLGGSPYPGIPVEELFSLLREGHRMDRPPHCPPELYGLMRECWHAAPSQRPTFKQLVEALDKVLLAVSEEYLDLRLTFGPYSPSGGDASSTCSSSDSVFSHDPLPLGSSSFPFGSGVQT
Procedure, shortened: as §2

[5] = biological target: FGFR1 (Homo sapiens (Human), UniProt P11362); test: as above
FGFR1, sequence (P11362 22-822): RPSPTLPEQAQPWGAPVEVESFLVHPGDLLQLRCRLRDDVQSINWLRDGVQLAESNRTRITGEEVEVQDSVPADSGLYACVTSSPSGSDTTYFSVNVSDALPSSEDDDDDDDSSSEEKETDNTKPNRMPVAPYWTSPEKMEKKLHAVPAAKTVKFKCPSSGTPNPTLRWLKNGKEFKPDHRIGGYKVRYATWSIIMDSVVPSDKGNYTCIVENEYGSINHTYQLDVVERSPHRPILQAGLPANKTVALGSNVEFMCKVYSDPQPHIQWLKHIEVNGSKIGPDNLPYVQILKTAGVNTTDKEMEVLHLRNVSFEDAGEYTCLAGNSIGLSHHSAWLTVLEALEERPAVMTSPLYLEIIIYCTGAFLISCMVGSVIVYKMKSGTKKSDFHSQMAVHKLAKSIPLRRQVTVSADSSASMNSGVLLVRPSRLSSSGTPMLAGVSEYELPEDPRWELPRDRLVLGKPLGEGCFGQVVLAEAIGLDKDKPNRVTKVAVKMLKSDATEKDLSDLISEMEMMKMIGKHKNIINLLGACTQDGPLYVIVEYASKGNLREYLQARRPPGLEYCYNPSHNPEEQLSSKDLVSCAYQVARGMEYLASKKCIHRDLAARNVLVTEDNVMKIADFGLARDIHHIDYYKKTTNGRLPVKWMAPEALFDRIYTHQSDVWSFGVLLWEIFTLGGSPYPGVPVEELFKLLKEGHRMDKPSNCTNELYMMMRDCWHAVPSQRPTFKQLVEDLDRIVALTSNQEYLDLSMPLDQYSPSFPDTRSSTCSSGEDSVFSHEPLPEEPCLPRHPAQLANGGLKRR
Procedure, shortened: as §2

[6] = biological target: FGFR3 (V555M) (Homo sapiens (Human), UniProt P22607, V555M); test: as above; settings: V555M mutant
FGFR3 (V555M), sequence (P22607 23-806 V555M): as the sequence (P22607 23-806) above, with V533M counted along it
Procedure, shortened: as §2

[7] = tested on: UM-UC-14 cells (FGFR3(S249C)); test: UM-UC-14 cancer cell line cell viability assay (CellTiter-Glo 2.0); assay type: cell-based; settings: UMUC14, 72 hours, Cell Titer Glo 2.0
Procedure, shortened: as §1

[8] = biological target: FGFR1-BCR Ba/F3 cells (Homo sapiens, UniProt P11362); test: Ba/F3 cell viability assay (CellTiter-Glo 2.0), FGFR1-BCR Ba/F3; assay type: cell-based; settings: read-out: Ba/F3 Cells FGFR1 (IC50 nM), 48 hours, Cell Titer Glo 2.0
FGFR1-BCR Ba/F3 cells, sequence (P11362 22-822 limits assumed, change not shown): as the sequence (P11362 22-822) above
Procedure, shortened: (§3)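 IL3-independent Ba/F3 lines driven by FGFR1-BCR or FGFR3-BAIAP2L1 fusions, in RPMI1640/10% FBS. 9-dose 10-fold series from 30 μM, triplicate, 48 h at 37 °C; viability by CellTiter-Glo 2.0 ATP luminescence relative to DMSO control, IC50 from 4-parameter sigmoidal fit.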

[9] = tested on: RT112/84 cells (FGFR3-fusion); test: RT112/84 cancer cell line cell viability assay (CellTiter-Glo 2.0); assay type: cell-based; settings: Homo sapiens, 72 hours, Cell Titer Glo 2.0
Procedure, shortened: as §1

[10] = biological target: FGFR3-BAIAP2L1 Ba/F3 cells (Homo sapiens, UniProt P22607); test: Ba/F3 cell viability assay (CellTiter-Glo 2.0), FGFR3-BAIAP2L1 Ba/F3; assay type: cell-based; settings: for Ba/F3 FGFR1/FGFR3 Selectivity: FGFR3 > FGFR1 selectivity ratio in Ba/F3 FGFR fusion cell based assays; for IC50: read-out: Ba/F3 Cells FGFR3 (IC50 nM), FGFR3-BAIAP2L1 Ba/F3 cells, 48 hours, Cell Titer Glo 2.0
FGFR3-BAIAP2L1 Ba/F3 cells, sequence (P22607 23-806 limits assumed, change not shown): as the sequence (P22607 23-806) above
Procedure, shortened: as §3

Row | SMILES | IC50 [1] [nM] | Kd [2] [nM] | Kd [3] [nM] | Kd [4] [nM] | Kd [5] [nM] | Kd [6] [nM] | IC50 [7] [nM] | IC50 [8] [nM] | IC50 [9] [nM] | Ba/F3 FGFR1/FGFR3 Selectivity [10] | IC50 [10] [nM]
1 | C[C@@H](Oc1ccc2[nH]nc(-c3cnc(N4CCC5(CCN(C)C5=O)CC4)nc3)c2c1)c1c(Cl)cncc1Cl [Example 51, 8-[5-[5-[(1R)-1-(3,5-dichloro-4-pyridyl)ethoxy]-1H-indazol-3-yl]pyrimidin-2-yl]-2-methyl-2,8-diazaspiro[4.5]decan-1-one] | 100 to 300 | 20 to 100 | 1 to 20 | 1 to 20 | 20 to 100 | 1 to 20 | 20 to 100 | 100 to 300 | 20 to 100 | 7 | 20 to 100
2 | C[C@@H](Oc1ccc2[nH]nc(-c3cnc(N4CCC5(CCCN5C)CC4)nc3)c2c1)c1c(Cl)cncc1Cl [Example 52, 8-[5-[5-[(1R)-1-(3,5-dichloro-4-pyridyl)ethoxy]-1H-indazol-3-yl]pyrimidin-2-yl]-1-methyl-1,8-diazaspiro[4.5]decane] | 20 to 100 | 20 to 100 | 1 to 20 | 1 to 20 | 1 to 20 | 1 to 20 | 20 to 100 | 100 to 300 | 20 to 100 | 7 | 20 to 100
3 | C[C@@H](Oc1ccc2[nH]nc(-c3cnc(N4CCC5(CCC(=O)N5C)CC4)nc3)c2c1)c1c(Cl)cncc1Cl [Example 54, 8-[5-[5-[(1R)-1-(3,5-dichloro-4-pyridyl)ethoxy]-1H-indazol-3-yl]pyrimidin-2-yl]-1-methyl-1,8-diazaspiro[4.5]decan-2-one] | 100 to 300 | 1 to 20 | 1 to 20 | 1 to 20 | 1 to 20 | 1 to 20 | 1 to 20 | 100 to 300 | 1 to 20 | 13 | 1 to 20
4 | C[C@@H](Oc1ccc2[nH]nc(-c3cnc(N4CCCN(C5COC5)CC4)nc3)c2c1)c1c(Cl)cncc1Cl [Example 60, 5-[(1R)-1-(3,5-Dichloro-4-pyridyl)ethoxy]-3-[2-[4-(oxetan-3-yl)-1,4-diazepan-1-yl]pyrimidin-5-yl]-1H-indazole] | 100 to 300 | 1 to 20 | 1 to 20 | 1 to 20 | 1 to 20 | 1 to 20 | 20 to 100 | 100 to 300 | 20 to 100 | 13 | 1 to 20
5 | Cc1cncc(C)c1[C@@H](C)Oc1ccc2[nH]nc(-c3ccc(N4CC5(C4)CN(S(C)(=O)=O)C5)nc3)c2c1 [Example 139, 5-[(1R)-1-(3,5-dimethyl-4-pyridyl)ethoxy]-3-[6-(2-methylsulfonyl-2,6-diazaspiro[3.3]heptan-6-yl)-3-pyridyl]-1H-indazole] | 100 to 300 | 1 to 20 | 1 to 20 | 1 to 20 | 20 to 100 | 1 to 20 | 1 to 20 | 100 to 300 | 1 to 20 | 14 | 20 to 100
6 | CCOC(=O)N1CC2(C1)CN(c1ccc(-c3n[nH]c4ccc(O[C@H](C)c5c(C)cnnc5C)cc34)cn1)C2 [Example 142, ethyl 6-[5-[5-[(1R)-1-(3,5-dimethylpyridazin-4-yl)ethoxy]-1H-indazol-3-yl]-2-pyridyl]-2,6-diazaspiro[3.3]heptane-2-carboxylate] | 100 to 300 | 1 to 20 | 1 to 20 | 1 to 20 | 20 to 100 | 1 to 20 | 1 to 20 | 100 to 300 | 20 to 100 | 25 | 1 to 20
7 | C[C@@H](Oc1ccc2[nH]nc(-c3ccc(N4CC5(CCCS(=O)(=O)C5)C4)nc3)c2c1)c1c(Cl)cncc1Cl [Example 159, 2-[5-[5-[(1R)-1-(3,5-dichloro-4-pyridyl)ethoxy]-1H-indazol-3-yl]-2-pyridyl]-6λ^6-thia-2-azaspiro[3.5]nonane 6,6-dioxide] | 1 to 20 | 1 to 20 | 1 to 20 | 1 to 20 | 1 to 20 | 1 to 20 | 20 to 100 | 20 to 100 | 1 to 20 | 16 | 1 to 20
